Assay results: patent publication US12428394B2, “2,4-disubstituted pyrimidine derivative, preparation method therefor and use thereof” (CHENGDU ZENITAR BIOMEDICAL TECHNOLOGY CO., LTD., priority 2019, dated 2025)

What was measured:
[1] = tested on: MV4-11 cells (FLT3-ITD+/+); assay: Inhibition of cell proliferation by MTT experiment, MV4-11; assay type: cell-based, human; details: Homo sapiens, MV4-11, 72 h, read-out: IC50 value on cell proliferation inhibition, MV4-11 FLT3-ITD+/+
In short: (§1)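 MTT assay in MV4-11, MOLM-13 (FLT3-ITD) and SET-2 (JAK2 V617F) cells at 10,000–15,000 cells/well in IMDM with 10% FBS. Cells are exposed to compound for 72 h at 37 °C, then to MTT for 1–3 h. IC50 is fitted from inhibition rates across concentrations.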

SET-2 cells (JAK2 V617F) = assay: Inhibition of cell proliferation by MTT experiment, SET-2; assay type: cell-based; details: Homo sapiens, SET-2, 72 h, read-out: IC50 value on cell proliferation inhibition, SET-2 (V617F)
In short: as §1

FLT3 = molecular target: T1, FLT3 (Homo sapiens, UniProt P36888); assay: In vitro kinase activity experiment, FLT3; assay type: biochemical
T1 construct: purchased Eurofins
T1 sequence (P36888 27-993): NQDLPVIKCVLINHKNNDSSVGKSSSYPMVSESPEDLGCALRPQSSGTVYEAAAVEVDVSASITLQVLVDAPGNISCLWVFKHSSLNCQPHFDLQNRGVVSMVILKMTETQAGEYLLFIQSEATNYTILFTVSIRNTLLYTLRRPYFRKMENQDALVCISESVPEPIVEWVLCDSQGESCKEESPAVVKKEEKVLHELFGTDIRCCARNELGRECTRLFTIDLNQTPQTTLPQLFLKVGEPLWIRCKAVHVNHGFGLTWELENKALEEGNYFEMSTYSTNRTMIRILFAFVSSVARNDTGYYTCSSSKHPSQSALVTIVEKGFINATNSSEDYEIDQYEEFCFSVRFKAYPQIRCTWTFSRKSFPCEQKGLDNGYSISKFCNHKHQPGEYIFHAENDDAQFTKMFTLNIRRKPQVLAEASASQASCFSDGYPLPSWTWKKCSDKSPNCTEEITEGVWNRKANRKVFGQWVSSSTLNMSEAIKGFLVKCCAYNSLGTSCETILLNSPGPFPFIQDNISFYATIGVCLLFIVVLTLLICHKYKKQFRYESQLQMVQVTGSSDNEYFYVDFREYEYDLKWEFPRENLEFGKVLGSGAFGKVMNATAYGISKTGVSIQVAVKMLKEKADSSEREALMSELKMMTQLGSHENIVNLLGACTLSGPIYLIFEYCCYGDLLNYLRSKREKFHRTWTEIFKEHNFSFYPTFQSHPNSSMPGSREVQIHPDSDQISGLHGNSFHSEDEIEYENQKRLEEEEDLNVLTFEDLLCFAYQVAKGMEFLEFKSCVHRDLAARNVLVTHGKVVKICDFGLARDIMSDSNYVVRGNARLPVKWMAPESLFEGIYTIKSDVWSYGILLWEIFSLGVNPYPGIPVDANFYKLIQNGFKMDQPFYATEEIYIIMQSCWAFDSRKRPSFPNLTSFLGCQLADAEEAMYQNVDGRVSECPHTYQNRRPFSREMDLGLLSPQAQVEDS
In short: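 Radiometric filter-binding kinase assay: each kinase with its substrate, γ33P-ATP, 10 mM magnesium acetate and graded compound in 8 mM MOPS pH 7.0, 0.2 mM EDTA, 10 mM MnCl2. MgATP-started, 40 min at room temperature, stopped with 3% phosphate. Spotted on Filtermat A, washed, scintillation-counted.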

JAK1 = molecular target: T2, JAK1 (Homo sapiens, UniProt P23458); assay: In vitro kinase activity experiment, JAK1; assay type: biochemical
T2 construct: purchased Eurofins
T2 sequence (P23458 whole entry): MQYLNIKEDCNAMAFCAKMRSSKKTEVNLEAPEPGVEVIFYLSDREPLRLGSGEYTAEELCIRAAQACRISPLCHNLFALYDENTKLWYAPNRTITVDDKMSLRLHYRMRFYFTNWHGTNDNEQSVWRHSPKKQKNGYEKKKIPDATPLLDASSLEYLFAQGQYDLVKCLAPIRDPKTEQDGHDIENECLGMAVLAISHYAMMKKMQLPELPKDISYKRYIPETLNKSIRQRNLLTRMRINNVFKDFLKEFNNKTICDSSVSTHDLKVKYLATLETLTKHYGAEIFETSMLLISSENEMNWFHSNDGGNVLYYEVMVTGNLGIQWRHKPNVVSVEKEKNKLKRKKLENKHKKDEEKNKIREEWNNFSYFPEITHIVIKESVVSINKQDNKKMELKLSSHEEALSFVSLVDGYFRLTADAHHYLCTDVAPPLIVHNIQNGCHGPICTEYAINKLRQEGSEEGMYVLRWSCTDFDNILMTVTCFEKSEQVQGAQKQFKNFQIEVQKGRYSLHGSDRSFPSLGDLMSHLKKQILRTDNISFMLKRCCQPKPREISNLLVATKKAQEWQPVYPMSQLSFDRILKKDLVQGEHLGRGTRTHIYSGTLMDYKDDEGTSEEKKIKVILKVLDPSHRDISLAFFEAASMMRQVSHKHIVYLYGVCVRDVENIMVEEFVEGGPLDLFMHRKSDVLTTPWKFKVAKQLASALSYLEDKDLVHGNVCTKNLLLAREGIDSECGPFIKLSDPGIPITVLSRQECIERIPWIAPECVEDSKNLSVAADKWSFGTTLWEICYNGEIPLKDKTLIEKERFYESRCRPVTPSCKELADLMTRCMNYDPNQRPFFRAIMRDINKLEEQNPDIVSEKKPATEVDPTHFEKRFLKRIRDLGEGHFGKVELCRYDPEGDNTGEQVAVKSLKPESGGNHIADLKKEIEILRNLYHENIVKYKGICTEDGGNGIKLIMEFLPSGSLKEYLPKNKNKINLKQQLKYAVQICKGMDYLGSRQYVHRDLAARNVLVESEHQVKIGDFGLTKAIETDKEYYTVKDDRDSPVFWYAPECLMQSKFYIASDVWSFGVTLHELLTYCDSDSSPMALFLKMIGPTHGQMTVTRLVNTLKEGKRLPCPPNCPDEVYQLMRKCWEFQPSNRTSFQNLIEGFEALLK
Protocol: Buffer solution ([…], pH 7.0, 0.2 mm EDTA, 10 mM mncl2), kinase to be tested, substrate of kinase to be tested, 10 mM magnesium acetate and γ33P-ATP solution, and compounds with different concentrations were added to a reaction tube in turn, then MgATP was added to initiate the enzyme reaction process, and incubated at room temperature for 40 min. Then, the reaction was terminated with 5 μl of […], and 10 μl of the reaction solution was titrated onto the Filtermat A membrane, washed with 75 mM phosphate solution for three times, each time for 5 min., and then washed with methanol once. Finally, the Filtermat A membrane was dried and the scintillation count was carried out.

[2] = tested on: JAK2/FLT3 signaling pathway related proteins; assay: Immunoblot experiment on JAK2/FLT3 signaling pathway related proteins in MV4-11 and SET-2 cells; assay type: cell-based; details: different concentrations
Protocol: The cells were subjected to SDS-PAGE gel electrophoresis with 8%-16% gradient gels, and constant flow membrane was carried out. The cells were blocked with 5% skim milk, and the primary antibody FLT3 (CST, 3462S), […] (CST, 3464S), STAT5 (CST, 9363S), […] (Abcam, ab32364), JAK2 (Proteintech, 02802), p-JAK2 (Abcam, ab32101), JAK1 (Santa Cruz Biotechnology, sc-136225), […] (Santa Cruz Biotechnology, sc-101716), GAPDH (Abways, AB0037), Rb (Abways, CY5661), […] (Abways, CY5260) was incubated. The next day, the cells were washed with PBS/T for three times, horseradish enzyme-labeled goat anti-mouse second antibody (Abways, AB0102) and horseradish enzyme-labeled goat anti-rabbit second antibody (Abways, AB0101) were incubated at room temperature, then the cells were washed with PBS/T for three times, and developed by the addition of the ECL chemiluminescent substrate.

[3] = tested on: Ba/F3-EpoR-JAK2V617F cells; assay: Ba/F3-EpoR-JAK2V617F-driven malignant tumor mouse model; assay type: in vivo, Babl/c-nude mice; details: oral twice a day
Protocol: Babl/c-nude mice (Beijing Huafukang Biotechnology Co., Ltd.) were received and acclimated to the environment until these mice were normalized in diet and activity, and the modeling began. Ba/F3-EpoR-JAK2V617F cells (State Key Laboratory of Biotherapy, Sichuan University) were routinely incubated and grew to 80% fusion degree. Then the cells were centrifuged at 1000 rpm for 3 min., collected, resuspended by PBS and counted by a cell counter; while the survival rate of the cells was calculated. Only when the proportion of living cells exceeds 90%, can the cells be used in the experiment, with the cell concentration adjusted to 1×10^7 cells/mL. After the cells were collected, the cell suspension was pre-cooled on ice. Each mouse was inoculated as per 1.0×10^6, and batch induction modeling was carried out.

Cc1cnc(Nc2ccc(N3CCC(N(C)CCO)CC3)c(F)c2)nc1-c1cnn(C(C)C)c1 [CLJ-44, 5-methyl-N-(3-fluoro-4-(4-N-hydroxyethyl-4-N-methylaminopiperidine-1-yl)phenyl)-4-(1-isopropyl-1H-pyrazole-4-yl) pyrimidine-2-amine]
IC50 [1]: 1 to 10 nM
IC50 (SET-2 cells (JAK2 V617F)): 10 to 100 nM
IC50 (FLT3): 4 nM
inhibition at 0.5 µM (FLT3; 40 min, read-out: Kinase activity @ 500 nM (%) FLT3): 99%
IC50 (JAK1): 37 nM
autophosphorylation of JAK2/FLT3 (immunoblot) [2]: significantly inhibited the autophosphorylation of JAK2/FLT3 in a dose-dependent relationship
effect on JAK subtype JAK1 (immunoblot) [2]: weak effect
inhibition of spleen growth ([3]; 7.5 mg/Kg): 18.74%
inhibition of spleen growth ([3]; 15 mg/Kg): 35.67%
inhibition of spleen growth ([3]; 30 mg/Kg): 79.79%
inhibition of spleen growth ([3]; 45 mg/Kg): 101.08%
spleen weight ([3]; 45 mg/Kg): restored to the weight of a normal mouse
